Laboratory results: the supplement of paper PMC11061612

Experiments:
Assay in all cases: Bliss excess, mean over the matrix (fraction); higher = more synergy
[1] = tested on: KGN (Other Solid Carcinomas)
Method in brief: (§1)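 Cell lines grown in DMEM/F12 or RPMI with 10% FBS were plated in 1536-well plates and held 24 hours at 37°C, 5% CO2 before 72 hours of exposure to two-drug dose matrices, with DMSO typically at 0.2%. CellTiter-Glo 2.0 luminescence gave viability, which was converted to inhibition. Vehicle wells were set to 0 and blank wells to 1. Combination Emax is the second-highest inhibition in the matrix, and Bliss excess is the observed combination effect minus the expected EA + EB − EA·EB, where EA and EB are the single-agent effects.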

[2] = tested on: DU-145 (Prostate Carcinoma)
Method in brief: as §1

[3] = tested on: KMRC-1 (Kidney Carcinoma)
Method in brief: as §1

[4] = tested on: EFO-21 (Ovarian Carcinoma)
Method in brief: as §1

[5] = tested on: NCI-H522 (Lung Adenocarcinoma)
Method in brief: as §1

[6] = tested on: SK-LU-1 (Lung Adenocarcinoma)
Method in brief: as §1

[7] = tested on: Mo-T (Other Blood Carcinomas)
Method in brief: as §1

[8] = tested on: NCI-H1355 (Lung Adenocarcinoma)
Method in brief: as §1

[9] = tested on: ME-180 (Cervical Carcinoma)
Method in brief: as §1

[10] = tested on: SKN (Other Solid Carcinomas)
Method in brief: as §1

[11] = tested on: SW982 (Other Solid Carcinomas)
Method in brief: as §1

[12] = tested on: MOG-G-UVW (Low Grade Glioma)
Method in brief: as §1

[13] = tested on: COLO-668 (Small Cell Lung Carcinoma)
Method in brief: as §1

[14] = tested on: HCC2998 (Colorectal Carcinoma)
Method in brief: as §1

[15] = tested on: CADO-ES1 (Ewing's Sarcoma)
Method in brief: as §1

[16] = tested on: NCI-H1092 (Small Cell Lung Carcinoma)
Method in brief: as §1

[17] = tested on: LC-1-sq (Squamous Cell Lung Carcinoma)
Method in brief: as §1

[18] = tested on: HCC1500 (Breast Carcinoma)
Method in brief: as §1

[19] = tested on: ALL-SIL (T-Lymphoblastic Leukemia)
Method in brief: as §1

[20] = tested on: OACM5-1 (Esophageal Adenocarcinoma)
Method in brief: as §1

Structure (SMILES)	Bliss excess [1]	Bliss excess [2]	Bliss excess [3]	Bliss excess [4]	Bliss excess [5]	Bliss excess [6]	Bliss excess [7]	Bliss excess [8]	Bliss excess [9]	Bliss excess [10]	Bliss excess [11]	Bliss excess [12]	Bliss excess [13]	Bliss excess [14]	Bliss excess [15]	Bliss excess [16]	Bliss excess [17]	Bliss excess [18]	Bliss excess [19]	Bliss excess [20]
C=CCn1c(=O)c2cnc(Nc3ccc(N4CCN(C)CC4)cc3)nc2n1-c1cccc(C(C)(C)O)n1 [AZD1775] + CCc1c2c(nc3ccc(O)cc13)-c1cc3c(c(=O)n1C2)COC(=O)[C@]3(O)CC [SN-38] (first compound max 1 µM, partner max 0.3 µM)	-0.114	-0.0641	-0.0817	-0.0193	0.0912	-0.133	-0.0799	-0.0622	-0.0039	-0.0126	-0.0158	0.0228	-0.0448	–	–	–	–	–	–	–
C=CCn1c(=O)c2cnc(Nc3ccc(N4CCN(C)CC4)cc3)nc2n1-c1cccc(C(C)(C)O)n1 [AZD1775] + Nc1ccn([C@@H]2O[C@H](CO)[C@@H](O)C2(F)F)c(=O)n1 [Gemcitabine] (first compound max 1 µM, partner max 0.3 µM)	0.0009	-0.0385	-0.0495	-0.0653	0.0486	-0.0837	-0.0204	0.0478	0.0154	-0.0709	-0.0248	0.0183	-0.0734	–	–	–	–	–	–	–
CN(CCO)CC[C@H](CSc1ccccc1)Nc1ccc(S(=O)(=O)NC(=O)c2ccc(N3CCC([C@@H](O)c4ccccc4-c4ccc(Cl)cc4)CC3)cc2)cc1S(=O)(=O)C(F)(F)F [AZD4320] + CS(=O)(=O)CCNCc1ccc(-c2ccc3ncnc(Nc4ccc(OCc5cccc(F)c5)c(Cl)c4)c3c2)o1 [Lapatinib] (first compound max 1 µM, 7x7, partner max 10 µM)	-0.0448	-0.028	0.0223	-0.0104	-0.0206	-0.0415	0.0485	0.0077	0.0726	-0.0188	0.0799	0.0193	0.0881	–	–	–	–	–	–	–
Cc1c2c(nn1C)CSCc1cc(n(C)n1)CSc1cc(c3ccccc3c1)OCCCc1c(C(=O)O)n(C)c3c-2c(Cl)ccc13 [AZD5991] + CC(=O)O[C@H]1C(=O)[C@@]2(C)[C@H]([C@H](OC(=O)c3ccccc3)[C@]3(O)C[C@H](OC(=O)[C@H](O)[C@@H](NC(=O)c4ccccc4)c4ccccc4)C(C)=C1C3(C)C)[C@]1(OC(C)=O)CO[C@@H]1C[C@@H]2O [Paclitaxel] (first compound max 1 µM, 7x7, partner max 3 µM)	0.0025	0.0077	0.0286	0.0151	0.056	-0.0288	-0.0521	-0.0431	0.0258	-0.007	-0.0039	0.0217	0.028	–	–	–	–	–	–	–
Cc1c2c(nn1C)CSCc1cc(n(C)n1)CSc1cc(c3ccccc3c1)OCCCc1c(C(=O)O)n(C)c3c-2c(Cl)ccc13 [AZD5991] + CS(=O)(=O)CCNCc1ccc(-c2ccc3ncnc(Nc4ccc(OCc5cccc(F)c5)c(Cl)c4)c3c2)o1 [Lapatinib] (first compound max 1 µM, 7x7, partner max 10 µM)	-0.0049	-0.034	-0.0282	0.0347	0.0118	-0.0423	-0.0344	0.0127	0.0624	-0.0365	-0.0151	-0.0158	0.0395	–	–	–	–	–	–	–
Cc1c2c(nn1C)CSCc1cc(n(C)n1)CSc1cc(c3ccccc3c1)OCCCc1c(C(=O)O)n(C)c3c-2c(Cl)ccc13 [AZD5991] + Nc1ccn([C@@H]2O[C@H](CO)[C@@H](O)C2(F)F)c(=O)n1 [Gemcitabine] (first compound max 1 µM, 7x7, partner max 0.3 µM)	-0.0457	-0.0284	-0.0638	-0.0204	0.091	-0.0518	-0.0226	-0.0333	-0.036	-0.0331	-0.0594	0.0085	-0.0674	–	–	–	–	–	–	–
C[C@@H]1COCCN1c1cc(C2([S@](C)(=N)=O)CC2)nc(-c2ccnc3[nH]ccc23)n1 [AZD6738] + C1CC(C1)(C(=O)[O-])C(=O)[O-].N.N.[Pt+2] [Carboplatin] (first compound max 10 µM, 7x7, partner max 10 µM)	-0.0084	-0.043	-0.0289	-0.0606	-0.0584	-0.0088	-0.0272	-0.0345	-0.013	-0.0766	-0.0453	-0.0044	0.025	–	–	–	–	–	–	–
C[C@@H]1COCCN1c1cc(C2([S@](C)(=N)=O)CC2)nc(-c2ccnc3[nH]ccc23)n1 [AZD6738] + Nc1ccn([C@@H]2O[C@H](CO)[C@@H](O)C2(F)F)c(=O)n1 [Gemcitabine] (first compound max 10 µM, 7x7, partner max 0.3 µM)	0.0065	0.0742	0.0601	0.0847	0.122	-0.0668	0.002	0.0732	0.0564	0.0033	0.0352	0.0856	0.0525	–	–	–	–	–	–	–
C[C@@H](Nc1cc(F)cc(F)c1)c1cc(C(=O)N(C)C)cc2c(=O)cc(N3CCOCC3)oc12 [AZD8186] + C1CN(CCC1(C(=O)N[C@@H](CCO)C2=CC=C(C=C2)Cl)N)C3=NC=NC4=C3C=CN4 [AZD5363] (first compound max 10 µM, 7x7, partner max 10 µM)	0.0547	-0.0038	-0.0524	-0.0376	-0.0426	0.02	-0.0393	-0.0244	-0.0133	-0.1	-0.0763	-0.0364	-0.002	–	–	–	–	–	–	–
CC1(C)CCC(CN2CCN(c3ccc(C(=O)NS(=O)(=O)c4ccc(NCC5CCOCC5)c([N+](=O)[O-])c4)c(Oc4cnc5[nH]ccc5c4)c3)CC2)=C(c2ccc(Cl)cc2)C1 [Venetoclax] + C[C@@H]1COCCN1C2=NC(=NC(=C2)C3(CC3)[S@](=N)(=O)C)C4=C5C=CNC5=NC=C4 [AZD6738] (first compound max 1 µM, 7x7, partner max 10 µM)	-0.0601	-0.0097	-0.0365	-0.0351	-0.0099	–	-0.0373	-0.0593	0.0165	-0.0654	-0.031	-0.0672	0.032	-0.0423	0.0118	0.0739	-0.0095	0.0413	-0.0217	0.0115
CC1(C)CCC(CN2CCN(c3ccc(C(=O)NS(=O)(=O)c4ccc(NCC5CCOCC5)c([N+](=O)[O-])c4)c(Oc4cnc5[nH]ccc5c4)c3)CC2)=C(c2ccc(Cl)cc2)C1 [Venetoclax] + C[C@@H](Nc1cc(F)cc(F)c1)c1cc(C(=O)N(C)C)cc2c(=O)cc(N3CCOCC3)oc12 [AZD8186] (first compound max 1 µM, 7x7, partner max 3 µM)	-0.0296	-0.0239	-0.0198	-0.0441	-0.0273	–	0.0015	-0.0256	-0.015	-0.023	-0.0813	-0.0111	0.0418	-0.0317	0.117	0.0667	-0.0254	0.0626	0.0344	0.0321
CC1(C)CCC(CN2CCN(c3ccc(C(=O)NS(=O)(=O)c4ccc(NCC5CCOCC5)c([N+](=O)[O-])c4)c(Oc4cnc5[nH]ccc5c4)c3)CC2)=C(c2ccc(Cl)cc2)C1 [Venetoclax] + Cc1cc2ncnn2cc1Nc1ncc2c(n1)n(C1CCOCC1)c(=O)n2C [AZD7648] (first compound max 1 µM, 7x7, partner max 10 µM)	-0.0339	-0.0166	-0.0514	-0.0212	-0.0232	–	0.0426	-0.0124	0.0013	-0.172	0.0103	-0.0482	0.0355	-0.0314	-0.0223	0.0303	0.0004	0.0586	-0.0022	-0.0269
CC1(C)CCC(CN2CCN(c3ccc(C(=O)NS(=O)(=O)c4ccc(NCC5CCOCC5)c([N+](=O)[O-])c4)c(Oc4cnc5[nH]ccc5c4)c3)CC2)=C(c2ccc(Cl)cc2)C1 [Venetoclax] + Cn1cnc2c(F)c(Nc3ccc(Br)cc3Cl)c(C(=O)NOCCO)cc21 [Selumetinib] (first compound max 1 µM, 7x7, partner max 3 µM)	-0.0406	-0.0121	-0.0344	-0.069	-0.0215	–	0.021	-0.032	-0.01	-0.0664	-0.0722	0.0564	0.116	-0.0065	-0.0596	-0.0691	-0.0135	-0.023	0.0035	0.0243
